Test results reported in patent US11466067B2 (priority 2019, dated 2022).

Tests used:
[1] = tested on: circulating cytokines, chemokines, growth factors; format: in vivo, mice; settings: mouse, in vivo
[2] = Salt screening for dimer stability (SE-HPLC); format: physicochemical; settings: buffer exchange, data not shown
Protocol: Formulations were prepared with the delivery construct at 20 g/Lin 10 mM Sodium Phosphate at pH 7.0 with the salts and salt concentrations as indicated in Table 53. The percentage of the IL-10 delivery construct present in dimer form, monomer form, and high molecular weight aggregates (HMW Agg) was assessed by size exclusion HPLC as indicated previously.

[3] = Single oral capsule dose in NHP: plasma caffeine by LC-MS/MS; format: in vivo, Macaca fascicularis
Protocol: In order to quantitate plasma caffeine levels, an LC-MS/MS detection system was employed. A 25-μL matrix aliquot was fortified with 25 μL of 2.00 μg/mL caffeine-trimethyl-^13C3 internal standard working solution. Analytes were isolated through supported liquid extraction (SLE). A portion of the eluate was transferred and evaporated under a nitrogen stream at approximately 45° C., and the remaining residue reconstituted with 500 μL of water/acetonitrile (95:5, v/v). The final extract was analyzed via HPLC with MS/MS detection using positive ion electrospray and reverse phase chromatography. Caffeine concentration was determined using similarly run calibration controls.
IL-10 delivery construct dosing at multiple fixed doses in non-naïve adult male Macaca fascicularis was conducted by Valley Biosystems (West Sacramento, Calif.). […] Dosing groups are described in TABLE 45.
Blood samples were collected in K2EDTA tubes from each animal pre-dose and at 0.5, 1, 2, 3, 4, 5, 6, 7, 8, and 24 hours post-dose. Animals were returned to home cages following the 2-hour sample collection. Following physical restraint, blood samples were collected via direct venous puncture using a cephalic, femoral or saphenous vein, which were processed to plasma and stored frozen at −60° C. until shipment.

[4] = initial liquid formulation screen
[5] = Surfactant evaluation under shear stress (visual, turbidity, SEC-HPLC); format: physicochemical; settings: for SEC-HPLC forms of construct (HMW, dimer, monomer) with surfactant: 1×PBS, before/after vortexing
Protocol: Following vortexing, the solution was visually inspected. The sample without a surfactant was slightly hazy while the samples with the surfactant were clear after vortexing. The turbidity (340-360 nm) of the solution was assessed after vortexing.
SEC-HPLC was carried out on the IL-10 delivery construct formulations before (FIG. 93) and after (FIG. 94) vortexing (TABLE 48).

[6] = tested on: STAT3; settings: 20 min stimulation
[7] = Intraluminal injection in T-cell transfer colitis model, rhIL-10 ELISA; format: in vivo, BALB/c and SCID mice; settings: 159 pmoles intraluminal
Protocol: This study was conducted to examine the potential for the carrier protein to transport rhIL-10 from the intestinal lumen into the submucosal region in inflamed intestinal tissue. The T lymphocyte (T cell) transfer model was used as it is a well-established model of induced chronic colitis in mice and presents many of the essential immunological hallmarks observed in IBD patients. Nine BALB/c mice and twelve SCID mice, including nine with the colitis-like model of inflammation, were dosed with 20 μl of test article via intraluminal injection into the distal ileum and the proximal, middle and distal colon.
PBS vehicle was administered to healthy BALB/c mice and both healthy and induced colitis SCID mice (n=3/group). In each group, two mice were terminated 10 minutes after intraluminal injections, and one was terminated 40 minutes after intraluminal injections. Intestinal tissue and serum were collected. Collected tissue was fixed, embedded, sectioned and H&E stained for histological assessment of inflammatory status. ELISA analysis to measure rhIL 10 was performed on lysates prepared from intestinal tissue and serum (FIGS. 106A-106D).

[8] = tested on: STAT3, IL-1Ra; assay: pSTAT3/STAT3 and systemic IL-1Ra in non-inflamed mice (ELISA MSD); format: in vivo
[9] = tested on: STAT3 phosphorylation; assay: pSTAT3 and hIL-10 immunofluorescence in intestine 40 min post oral gavage; format: in vivo, rat
Protocol: This observation is consistent with findings in mice that intestinal epithelial cells can express IL-10 receptors at their apical surface under certain conditions associated with development and maintenance of barrier function. […] In order to quantify how test articles affected intestinal IL-10 signal transduction pathways, image analysis was performed: high-throughput image batches were collected, segmented by epithelial versus Lamina propria localization, and then by cellular features.

[10] = Dimer purity during compaction/granulation (SEC); format: physicochemical; settings: slugging/granulation formulation intermediates
Protocol: The compatibility of the IL-10 delivery construct was evaluated for the initial steps of tablet formation. Blending and compaction processes were conducted. Both roller compaction and slugging was conducted, with subsequent milling to granules in each case. In order to explore excipient functionality and compatibility, different excipients were included in the three formulations.
Roller compaction was conducted at 2 forces, and the resulting ribbons were individually granulated. Materials were reconstituted in PBS at 0.65 mg/mL SEQ ID NO: 5 and filtered with 0.2 um filter (Advantec) before SEC analysis. Samples were also incubated at 40° C. for two weeks before reconstitution and analysis.
The same analysis was conducted for the intermediates generated in the slugging/granulation process (TABLE 30). As well as the different compaction method, the slugging/granulation batch differed in binder and lubricant composition.

With `Nc1ccc(O)c(C(=O)O)c1` [5-ASA, 5-aminosalicylic acid, reference compound] the “oxazolone-induced increase in plasma GCSF/CSF3” value [1] was “attenuated”.

With `N.N.O=S(=O)(O)O` [NH4SO4, ammonium sulfate] the “behaviour of construct at higher salt concentrations” value [2] was “precipitate during buffer exchange”.

For `O=S(=O)([O-])[O-].[Na+].[Na+]` [Na2SO4, sodium sulfate], the “behaviour of construct at higher salt concentrations” value [2] was “precipitate during buffer exchange”.

In the case of `Cn1c(=O)c2c(ncn2C)n(C)c1=O` [caffeine], the “plasma caffeine Tmax” value ([3]; all doses) is reported as 4 hours post dose and the “time at which absorption of caffeine was observable (capsule opening)” value ([3]; cynomolgus monkey, in vivo) is reported as 2-3 hours post dose.

For poloxamer 188, the “aggregation of target construct under shear stress” value [4] was “reduced aggregation” and the “SEC-HPLC forms of construct (HMW, dimer, monomer) with surfactant” value (“SEC-HPLC forms of construct” for short) [5] was “seemed to stabilize the IL-10 delivery construct”.

With polysorbate 20 the “turbidity (340-360 nm) after vortexing” value ([5]; 0.1% in 1×PBS) was “increase in absorbance was also observed” and the “SEC-HPLC forms of construct” value [5] was “most amount of monomer before vortexing”.

For polysorbate 80, the “SEC-HPLC forms of construct” value [5] was “increase in HMW aggregates and monomers”.

For “rhIL-10: recombinant human IL-10 (SEQ ID NO: 2), commercial preparation used as comparator”, the “amplitude of pSTAT3/total STAT3” value [6] was 2.19%, the “rhIL-10 in serum of inflamed animals” value [7] was “minimal amounts” and the “increase in ratio of pSTAT3 to total STAT3” value ([8]; construct 1 mg/kg, rhIL-10 0.9 mg/kg (equimolar), non-inflamed colon tissue) was “did not significantly alter”. The “increase of systemic IL-1Ra” value ([8]; construct 10 mg/kg, rhIL-10 3 mg/kg (equimolar)) was “did not significantly increase” and the “hIL-10 and pSTAT3 in intestinal tissue” value [9] was “pSTAT3 induction in enterocytes but not in cells within the Lamina propria”.

B1: Drug Substance (DS) (protein)
chain: MVEEALNIFDECRSPCSLTPEPGKPIQSKLSIPSDVVLDEGVLYYSMTINDEQNDIKDEDKGESIITIGEFATVRATRHYVNQDAPFGVIHLDITTENGTKTYSYNRKEGEFAINWLVPIGEDSPASIKISVDELDQQRNIIEVPKLYSIDLDNQTLEQWKTQGNVSFSVTRPEHNIAISWPSVSYKAAQKEGSRHKRWAHWHTGLALCWLVPMDAIYNYITQQNCTLGDNWFGGSYETVAGTPKVITVKQGIEQKPVEQRIHFSKGNAMSALAAHRVCGVPLETLARSRKPRDLTDDLSCAYQAQNIVSLFVATRILFSHLDSVFTLNLDEQEPEVAERLSDLRRINENNPGMVTQVLTVARQIYNDYVTHHPGLTPEQTSAGAQAGGGGSGGGGSGGGGSPGQGTQSENSCTHFPGNLPNMLRDLRDAFSRVKTFFQMKDQLDNLLLKESLLEDFKGYLGCQALSEMIQFYLEEVMPQAENQDPDIKAHVNSLGENLKTLRLRLRRCHRFLPCENKSKAVEQVKNAFNKLQEKGIYKAMSEFDIFINYIEAYMTMKIRN
modifications: dimer
With B1 the “Purity (dimer purity)” value [10] was 81.2.
